According to PubChem BioAssay AID1963426 (Molecular Pharmacology Branch, DTP, NCI, 2024):
Several values for one entry are separate records, joined by “and”; a condition that tells them apart may be missing. Equal values may be shown once.

Tested on: 186277-243-T-J2-PDC complex spheroid growth, % test/control
Assay: Anticancer human tumor 186277-243-T-J2-PDC patient-derived colon adenocarcinoma cell line growth inhibition [Asc]
Details: for viability, T/C: stronger effect = lower value
Protocol: Multicellular complex tumor spheroid response to apoptosis pathway targeting inhibitors Alrizomadlin, Pelcitoclax, and Dasminapant in combination with a variety of drugs and investigational agents in selected tumor cell lines
The MDM2 inhibitor alrizomadlin, the Bcl-2/Bcl-xL inhibitor pelcitoclax, and the IAPs inhibitor dasminapant were evaluated both individually and in combination with standard of care and investigational anticancer small molecules within a complex spheroid model of solid tumors. . Complex spheroids include a stromal component modeled by human endothelial cells (HUVEC) and fibroblasts modeled by human mesenchymal stem cells (MSCs). The concentration ranges selected for each drug and investigational agent were based upon clinically achievable concentrations if the clinical Cmax of the agent was known.
Compounds. The drugs and investigational agents: alrizomadlin (APG-115; NSC831270), pelcitoclax (APG-1252; NSC835773), dasminapant (APG-1387;NSC834197), TAK-243 (NSC785004), copanlisib (NSC809693), olaparib (NSC753686), talazoparib (NSC767125), cobimetinib (NSC 768068), eltanexor (KPT-8602, NSC 794443), abemaciclib (NSC 768073), sotorasib (NSC818433), adagrasib (NSC 831453), MRTX-1133 (NSC 836407), Iadademestat (ORY1001, NSC 806812), and RMC-4630 (NSC839698), were obtained from the NCI Developmental Therapeutics Program Chemical Repository. The FDA-approved anticancer drug set is available from the Developmental Therapeutics Program at https://dtp.cancer.gov/organization/dscb/obtaining/available plates.htm. […] The stock solutions were prepared in dimethyl sulfoxide (DMSO, Sigma-Aldrich, St. Louis, MO, cat. D2650) at 800-fold the tested concentration and stored at -70 degrees C prior to their use. All drugs and investigational agents were tested over a range starting from a high concentration at or near the clinical Cmax and decreasing in half-log increments. If the clinical Cmax for an agent had not been determined, the highest concentration tested was 10 microM.
The patient-derived cancer (PDC) cell lines include five colon adenocarcinomas: 186277-243-T-J2-PDC, 616215-338-R-J1-PDC, 439559-082-T-J2-PDC, 463943-066-T-J2-PDC, and 519858-162-T-J1-PDC; three pancreatic carcinomas: 323965-272-R-J2-PDC, 521955-158-R6-J3-PDC, and 521955-158-R2-J5-PDC; two uterine sarcomas: 327498-152-R-J2-PDC and 993429-296-R-J1-PDC; two rhabdomyosarcomas: 755483-174-R-J1-PDC and 772245-204-R-J1-PDC; two soft tissue sarcomas: 126254-015-R-J1-PDC and 494315-158-R-J1-PDC; two malignant fibrous histiocytomas: 317291-083-R-J1-PDC and 596521-263-R-J1-PDC; two breast carcinomas: 171881-019-R-J1-PDC and 885512-296-R-J2-PDC; and one ovarian carcinoma: 6556581-035-R-J-PDC were obtained from the NCI PDMR, (https://pdmr.cancer.gov). The established cell lines HSSY-2 synovial sarcoma (RRID:CVCL 8719), SYO-1 synovial sarcoma (RRID:CVCL_7146), MPNST malignant peripheral neural sheath tumor were obtained from the Sloan Kettering Institute. The following established cell lines were purchased from the American Type Culture Collection (ATCC, Manassas, VA), Sor the received from the NCI repository:, PANC-1 pancreatic carcinoma (CRL-1469, RRID:CVCL_0480), OVCAR-5 ovarian carcinoma (RRID:CVCL_1628), OVCAR-8 ovarian carcinoma (RRID:CVCL_1629), , MCF-7 breast carcinoma (CRL-12584, RRID:CVCL_0031), MDA-MB-231 breast carcinoma (CRL-12532, RRID:CVCL_0062), NCI-H1876 small cell lung carcinoma (CRL-5902, RRID:CVCL_1503), NCI-H510A small cell lung carcinoma (HTB-184, RRID:CVCL_1565), NCI-H1417 (CRL-5869, RRID:CVCL_1469), and NCI-H196 small cell lung carcinoma (CRL-5823, RRID:CVCL_1509). Dr. Peter Houghton (Greehey Children's Cancer Research Institute, University of Texas Health Science Center, San Antonio, TX) provided Rh-18 rhabdomyosarcoma (RRID:CVCL_1659). Pooled donor human umbilical vein endothelial cells (HUVEC, Lonza, cat. CC-2519) and human mesenchymal stem cells (hMSC, Lonza, cat. PT-2501) were purchased from Lonza (Walkersville, MD).
Cell Culture. […]
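Note: spheroids exposed to agents for 7 days.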
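Throughout, for viability, T/C: 100% = DMSO vehicle control wells.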

Compound | IC50 (curve of compound) | viability, T/C (compound 0.0316 µM) | viability, T/C (compound 0.1 µM) | viability, T/C (compound 0.316 µM) | viability, T/C (compound 1 µM) | viability, T/C (compound 0.00316 µM) | viability, T/C (compound 0.01 µM) | further results
C#Cc1c(F)ccc2cc(O)cc(-c3ncc4c(N5CC6CCC(C5)N6)nc(OCC56CCCN5CC(F)C6)nc4c3F)c12 (stereo not drawn) | 649 nM and 306 nM and 204 nM | 103% and 107% and 88.1% | 105% and 88.2% and 66.5% | 76.8% and 48.2% and 40.8% | 33.4% and 21.4% and 16.8% |  |  | viability, T/C (compound 3.16 µM): 19.4% and 12.1% and 11.2%; viability, T/C (compound 10 µM): 12.5% and 8.62% and 7.15%
C=C(F)C(=O)N1CCN(c2nc(OCC3CCCN3C)nc3c2CCN(c2cccc4cccc(Cl)c24)C3)CC1CC#N (stereo not drawn) | 5700 nM and 5170 nM and 9280 nM | 107% and 98.5% and 102% | 112% and 77.5% and 116% | 107% and 83.6% and 103% | 103% and 77.3% and 80.7% |  |  | viability, T/C (compound 3.16 µM): 96.5% and 85% and 109%
Cc1c(S(C)(=O)=O)c(-c2cc(F)cc(N3CCN(c4ccc(NS(=O)(=O)c5ccc(NC(CCN6CCC(C(=O)OCCCP(=O)(O)O)CC6)CSc6ccccc6)c(S(=O)(=O)C(F)(F)F)c5)cc4)CC3)c2)c(-c2ccc(Cl)cc2)n1C(C)C (stereo not drawn) |  |  |  |  |  |  |  | IC50 (compound alone, run of 09/27/2022): > 10000 nM
Cc1nc(N2CCC3(CC2)COC(C)C3N)c(CO)nc1Sc1ccnc(N)c1Cl (stereo not drawn) | > 3000 nM |  |  |  |  |  |  | viability, T/C (compound 0.00949 µM): 92.7% and 111% and 93.3%; viability, T/C (compound 0.03 µM): 89.2% and 95.6% and 104%; viability, T/C (compound 0.0949 µM): 81% and 91.5% and 95.9%; viability, T/C (compound 0.3 µM): 102% and 103% and 96.9%; viability, T/C (compound 0.949 µM): 102% and 114% and 95%; viability, T/C (compound 3 µM): 109% (2×) and 93.4%
Cn1ncnc1[C@H]1c2n[nH]c(=O)c3cc(F)cc(c23)N[C@@H]1c1ccc(F)cc1 | > 100 nM | 118% and 122% and 108% | 111% and 134% and 100% |  |  | 108% and 104% and 99.5% | 116% and 118% and 84.3% | viability, T/C (compound 0.000316 µM): 93% and 95.2% and 74.1%; viability, T/C (compound 0.001 µM): 99.3% and 88.2% and 97.6%
NC(=O)C(=Cn1cnc(-c2cc(C(F)(F)F)cc(C(F)(F)F)c2)n1)c1cncnc1 | 161 nM and 141 nM and 218 nM |  |  |  |  |  |  | viability, T/C (compound 0.000949 µM): 99.3% and 89.8% and 97.7%; viability, T/C (compound 0.003 µM): 80.2% and 78.8% and 94.8%; viability, T/C (compound 0.00949 µM): 96.9% and 100% and 103%; viability, T/C (compound 0.03 µM): 96.2% and 77.8% and 106%; viability, T/C (compound 0.0949 µM): 81.6% and 71.7% and 101%; viability, T/C (compound 0.3 µM): 12.6% and 11.8% and 30.5%
O=C(c1ccc(F)c(F)c1Nc1ccc(I)cc1F)N1CC(O)([C@@H]2CCCCN2)C1 | 127 nM and 201 nM | 97.7% and 88.7% and 90.1% | 59.7% and 58.8% and 96.4% | 14.8% and 15.4% and 23.9% | 9.12% and 8.82% and 13.1% | 87.9% and 90.5% and 94.8% | 88.2% and 90.8% and 78.7% | 

Second part, led by results:

IC50 (curve of compound) | Compound | viability, T/C (compound 0.0316 µM) | viability, T/C (compound 0.1 µM) | viability, T/C (compound 0.316 µM) | viability, T/C (compound 1 µM) | viability, T/C (compound 0.00316 µM) | viability, T/C (compound 0.01 µM) | further results
> 10000 nM | C=CC(=O)N1CCN(c2nc(=O)n(-c3c(C)ccnc3C(C)C)c3nc(-c4c(O)cccc4F)c(F)cc23)C(C)C1 (stereo not drawn) | 105% and 89.2% and 107% | 92.6% and 91.2% and 95.4% | 92.2% and 96.7% and 90.9% | 102% and 99.8% and 107% |  |  | viability, T/C (compound 3.16 µM): 97.3% and 94.7% and 112%; viability, T/C (compound 10 µM): 114% and 102% and 97.3%
1860 nM and > 3000 nM | CCN1C(C(=O)NC23CCC(C(=O)O)(CC2)CC3)C(c2cccc(Cl)c2F)C2(C(=O)Nc3cc(Cl)ccc32)C12CCCCC2 (stereo not drawn) |  |  |  |  |  |  | viability, T/C (compound 0.00949 µM): 110% and 119%
> 1000 nM | CCN1CCN(Cc2ccc(Nc3ncc(F)c(-c4cc(F)c5nc(C)n(C(C)C)c5c4)n3)nc2)CC1 | 116% and 109% and 93.2% | 116% and 108% and 112% | 99.9% and 99.1% and 127% | 97.2% and 98.6% and 123% | 102% and 90.6% and 91.4% | 88% and 106% and 84.1% | 
> 1000 nM | CNC(C)C(=O)NC1CN(S(=O)(=O)c2cccc(S(=O)(=O)N3CCC4CCC(C(=O)NC(c5ccccc5)c5ccccc5)N4C(=O)C(NC(=O)C(C)NC)C3)c2)CCC2CCC(C(=O)NC(c3ccccc3)c3ccccc3)N2C1=O (stereo not drawn) |  | 104% [middle of 15 runs] |  |  | 93.8% and 103% |  | IC50 (compound alone, run of 10/03/2022): > 1000 nM
52.2 nM and 41.3 nM and 112 nM | COc1c(OCCCN2CCOCC2)ccc2c3n(c(=NC(=O)c4cnc(N)nc4)nc12)CCN3 | 58.9% and 54.5% and 69% | 35.2% and 28.6% and 56.5% | 17.5% and 17% and 29.3% | 13.2% and 11.8% and 19.8% | 91% and 96.2% and 93.6% | 102% and 91% and 105% | 
> 100 nM | NC1CCC(NC2CC2c2ccccc2)CC1 (stereo not drawn) | 83.8% and 77.6% and 108% | 79.2% and 72.9% and 88.8% |  |  | 101% and 79% and 98.9% | 96.4% and 84.1% and 93.7% | viability, T/C (compound 0.000316 µM): 104% and 75.7% and 107%; viability, T/C (compound 0.001 µM): 96.8% and 96.6% and 112%
> 10000 nM | O=C(c1cc(Cc2n[nH]c(=O)c3ccccc23)ccc1F)N1CCN(C(=O)C2CC2)CC1 | 98.1% and 91.9% and 98.5% | 95.8% and 101% and 97.5% | 94.8% and 99% and 102% | 95.9% and 94.6% and 98.1% |  |  | viability, T/C (compound 3.16 µM): 105% and 117% and 121%; viability, T/C (compound 10 µM): 103% and 112% and 135%
